Structures can show the parent of a compound that is named as a salt.
system: bacterial strains that express the class D cephalosporinase OXA-15; test: Synergy MIC / standard BLI potentiation MIC assay, strains expressing OXA-15; assay type: cell-based, E. coli; details: in the presence of a β-lactam; comparator Avibactam (comparator compound CCC)
Description: The experimental protocol was performed according to Clinical and Laboratory Standards Institute (CLSI) guidelines with modifications as described below (CLSI guidelines can be derived from the CLSI document M07-A9 published in January 2012: “Methods for Dilution Antimicrobial Susceptibility Tests for Bacteria That Grow Aerobically; Approved Standard-Ninth Edition”).
To prepare for MIC testing, frozen glycerol stocks of clinical isolates (Klebsiella pneumoniae, Eschericia coli, Enterobacter spp, Citrobacter spp, or Pseudomonas aeruginosa) were used to streak for isolated colonies on rich, non-selective, tryptic soy agar containing 5% sheep's blood (TSAB). Frozen glycerol stocks of laboratory engineered, isogenic E. coli strains, which contain cloned β-lactamase expressing plasmids were used to streak for isolated colonies on rich, selective LB agar supplemented with 25 μg/mL tetracycline to maintain the plasmid. All strains were incubated at 37° C. for 18-24 hrs.
On the day of testing, primary cultures were started by scraping off 5-10 colonies from the TSAB plates containing clinical strains or the tetracycline supplemented LB plates containing engineered strains. The clinical strain material was suspended in ˜5 mL of cation adjusted Mueller Hinton Broth (CAMHB) in 14 mL culture tubes. The engineered strain material was suspended in CAMHB (supplemented with 25 μg/mL tetracycline) in 14 mL culture tubes. All strains were incubated at 37° C. with aeration (200 rpm) for ˜2 hrs until the optical density at 600 nm (OD600) was ≧0.1.
The two compound components of the assay were each diluted in CAMHB and added to the 96-well broth microdilution assay plates. 50 μL of the β-lactam was added to each well of the assay plate in 2-fold dilutions with final concentrations ranging from 128 to 0.13 μg/mL. 25 μL of the BLI compound was added to all wells in the broth microdilution plates at a final concentration of 4 μg/mL. Inoculum cultures were prepared by standardizing the primary cultures to OD600=0.1 and then adding 20 μL of the adjusted primary culture per 1 mL CAMHB for clinical strains or CAMHB (supplemented with tetracycline at 100 μg/mL) for engineered strains, so that the final inoculum density was ˜10^5 colony forming units per milliliter. Diluted inoculum cultures were used to inoculate 25 μL per well in 96-well broth microdilution assay plates. The final volume of each well was 100 μL and contained a β-lactam at different concentrations, a BLI compound at 4 μg/mL concentration, the bacterial culture at an OD600 of approximately 0.001 and when necessary tetracycline at 25 μg/mL.
Plates were incubated for 18-20 hours at 37° C. with aeration (200 rpm). Following incubation, growth was confirmed visually placing plates over a viewing apparatus (stand with a mirror underneath) and then OD600 was measured using a SpectraMax 340PC384 plate reader (Molecular Devices, Sunnyvale, Calif.). Growth was defined as turbidity that could be detected with the naked eye or achieving minimum OD600 of 0.1. MIC values were defined as the lowest concentration producing no visible turbidity.
The synergy MIC (sMIC) assay determines the concentration of the BLI required to potentiate the activity of a fixed concentration of a β-lactam antibiotic against β-lactamase producing bacterial strains. The experimental protocol was performed according to Clinical and Laboratory Standards Institute (CLSI) guidelines with modifications as described below (CLSI guidelines can be derived from the CLSI document M07-A9 published in January 2012: “Methods for Dilution Antimicrobial Susceptibility Tests for Bacteria That Grow Aerobically; Approved Standard-Ninth Edition”). […]

Structure (SMILES)	activity against bacterial strains that express the class D cephalosporinase OXA-15, compared with Avibactam
N=C(N)NCCCc1nnc([C@@H]2CC[C@@H]3CN2C(=O)N3OS(=O)(=O)O)o1 [Compound 714, (2S,5R)-2-(5-(3-guanidinopropyl)-1,3,4-oxadiazol-2-yl)-7-oxo-1,6-diazabicyclo[3.2.1]octan-6-yl hydrogen sulfate]	more active than Avibactam
N[C@H]1CC[C@@H](c2nnc([C@@H]3CC[C@@H]4CN3C(=O)N4OS(=O)(=O)O)o2)CC1 [Compound 780, (2S,5R)-2-(5-((1s,4R)-4-aminocyclohexyl)-1,3,4-oxadiazol-2-yl)-7-oxo-1,6-diazabicyclo[3.2.1]octan-6-yl hydrogen sulfate]	more active than Avibactam
N[C@H]1C[C@H](NCc2nnc([C@@H]3CC[C@@H]4CN3C(=O)N4OS(=O)(=O)O)o2)C1 [Compound 757, (2S,5R)-2-(5-((((1r,3S)-3-aminocyclobutyl)amino)methyl)-1,3,4-oxadiazol-2-yl)-7-oxo-1,6-diazabicyclo[3.2.1]octan-6-yl hydrogen sulfate]	more active than Avibactam
O=C1N2C[C@@H](CC[C@H]2c2nnc(CCCN3CCNCC3)o2)N1OS(=O)(=O)O [Compound 792, (2S,5R)-7-oxo-2-(5-(3-(piperazin-1-yl)propyl)-1,3,4-oxadiazol-2-yl)-1,6-diazabicyclo[3.2.1]octan-6-yl hydrogen sulfate]	more active than Avibactam
NCC(N)c1nnc([C@@H]2CC[C@@H]3CN2C(=O)N3OS(=O)(=O)O)o1 (stereo partly drawn) [Compound 717, (2S,5R)-2-(5-(1,2-diaminoethyl)-1,3,4-oxadiazol-2-yl)-7-oxo-1,6-diazabicyclo[3.2.1]octan-6-yl hydrogen sulfate]	more active than Avibactam
O=C1N2C[C@@H](CC[C@H]2c2nnc(N3CCNCC3)o2)N1OS(=O)(=O)O [Compound 713, (2S,5R)-7-oxo-2-(5-(piperazin-1-yl)-1,3,4-oxadiazol-2-yl)-1,6-diazabicyclo[3.2.1]octan-6-yl hydrogen sulfate]	more active than Avibactam
O=C1N2C[C@@H](CC[C@H]2c2nnc(CNC3CCNCC3)o2)N1OS(=O)(=O)O [Compound 769, (2S,5R)-7-oxo-2-(5-((piperidin-4-ylamino)methyl)-1,3,4-oxadiazol-2-yl)-1,6-diazabicyclo[3.2.1]octan-6-yl hydrogen sulfate]	more active than Avibactam
O=C1N2C[C@@H](CC[C@H]2c2nnc(N3CCNCC3)s2)N1OS(=O)(=O)O [Compound 797, (2S,5R)-7-oxo-2-(5-(piperazin-1-yl)-1,3,4-thiadiazol-2-yl)-1,6-diazabicyclo[3.2.1]octan-6-yl hydrogen sulfate]	more active than Avibactam
N=C(N)NCc1nnc([C@@H]2CC[C@@H]3CN2C(=O)N3OS(=O)(=O)O)o1 [Compound 704, (2S,5R)-2-(5-(guanidinomethyl)-1,3,4-oxadiazol-2-yl)-7-oxo-1,6-diazabicyclo[3.2.1]octan-6-yl hydrogen sulfate]	more active than Avibactam
Nc1nnc([C@@H]2CC[C@@H]3CN2C(=O)N3OS(=O)(=O)O)o1 [Compound 707, (2S,5R)-2-(5-amino-1,3,4-oxadiazol-2-yl)-7-oxo-1,6-diazabicyclo[3.2.1]octan-6-yl hydrogen sulfate]	more active than Avibactam
NCC(O)c1nnc([C@@H]2CC[C@@H]3CN2C(=O)N3OS(=O)(=O)O)o1 (stereo partly drawn) [Compound 715, (2S,5R)-2-(5-(2-amino-1-hydroxyethyl)-1,3,4-oxadiazol-2-yl)-7-oxo-1,6-diazabicyclo[3.2.1]octan-6-yl hydrogen sulfate]	more active than Avibactam
O=C1N2C[C@@H](CC[C@H]2c2nnc([C@@H]3CNCCN3)o2)N1OS(=O)(=O)O [Compound 778, (2S,5R)-7-oxo-2-(5-((S)-piperazin-2-yl)-1,3,4-oxadiazol-2-yl)-1,6-diazabicyclo[3.2.1]octan-6-yl hydrogen sulfate]	more active than Avibactam
NCC(O)Cc1nnc([C@@H]2CC[C@@H]3CN2C(=O)N3OS(=O)(=O)O)o1 (stereo partly drawn) [Compound 733, (2S,5R)-2-(5-(3-amino-2-hydroxypropyl)-1,3,4-oxadiazol-2-yl)-7-oxo-1,6-diazabicyclo[3.2.1]octan-6-yl hydrogen sulfate]	more active than Avibactam
NCCNCCc1nnc([C@@H]2CC[C@@H]3CN2C(=O)N3OS(=O)(=O)O)o1 [Compound 716, (2S,5R)-2-(5-(2-((2-aminoethyl)amino)ethyl)-1,3,4-oxadiazol-2-yl)-7-oxo-1,6-diazabicyclo[3.2.1]octan-6-yl hydrogen sulfate]	more active than Avibactam
N=C(N)N1CCC(c2nnc([C@@H]3CC[C@@H]4CN3C(=O)N4OS(=O)(=O)O)o2)CC1 [Compound 712, (2S,5R)-2-(5-(1-carbamimidoylpiperidin-4-yl)-1,3,4-oxadiazol-2-yl)-7-oxo-1,6-diazabicyclo[3.2.1]octan-6-yl hydrogen sulfate]	more active than Avibactam
NC1CCN(c2nnc([C@@H]3CC[C@@H]4CN3C(=O)N4OS(=O)(=O)O)o2)CC1 [Compound 773, (2S,5R)-2-(5-(4-aminopiperidin-1-yl)-1,3,4-oxadiazol-2-yl)-7-oxo-1,6-diazabicyclo[3.2.1]octan-6-yl hydrogen sulfate]	more active than Avibactam
O=C1N2C[C@@H](CC[C@H]2c2nnc(CC3CNC3)o2)N1OS(=O)(=O)O [Compound 725, (2S,5R)-2-(5-(azetidin-3-ylmethyl)-1,3,4-oxadiazol-2-yl)-7-oxo-1,6-diazabicyclo[3.2.1]octan-6-yl hydrogen sulfate]	more active than Avibactam
O=C1N2C[C@@H](CC[C@H]2c2nnc(C3CCNCC3)s2)N1OS(=O)(=O)O [Compound 719, (2S,5R)-7-oxo-2-(5-(piperidin-4-yl)-1,3,4-thiadiazol-2-yl)-1,6-diazabicyclo[3.2.1]octan-6-yl hydrogen sulfate]	more active than Avibactam
N=C(N)N[C@H]1C[C@H](c2nnc([C@@H]3CC[C@@H]4CN3C(=O)N4OS(=O)(=O)O)o2)C1 [Compound 748, (2S,5R)-2-(5-((1r,3S)-3-guanidinocyclobutyl)-1,3,4-oxadiazol-2-yl)-7-oxo-1,6-diazabicyclo[3.2.1]octan-6-yl hydrogen sulfate]	more active than Avibactam
N[C@H]1CC[C@H](c2nnc([C@@H]3CC[C@@H]4CN3C(=O)N4OS(=O)(=O)O)o2)CC1 [Compound 781, (2S,5R)-2-(5-((1r,4S)-4-aminocyclohexyl)-1,3,4-oxadiazol-2-yl)-7-oxo-1,6-diazabicyclo[3.2.1]octan-6-yl hydrogen sulfate]	more active than Avibactam
